Reference: patent publication US20240317735A1, “HYDROISOQUINOLINE OR HYDRONAPHTHYRIDINE COMPOUNDS FOR THE TREATMENT OF AUTOIMMUNE DISEASE” (Hoffmann-La Roche Inc., priority 2020, published 2024)

Target: T1, human TLR8 (Homo sapiens, UniProt Q9NR97)
T1 construct: host or cells: HEK293 (HEK-Blue hTLR8)
T1 sequence (Q9NR97 27-1041): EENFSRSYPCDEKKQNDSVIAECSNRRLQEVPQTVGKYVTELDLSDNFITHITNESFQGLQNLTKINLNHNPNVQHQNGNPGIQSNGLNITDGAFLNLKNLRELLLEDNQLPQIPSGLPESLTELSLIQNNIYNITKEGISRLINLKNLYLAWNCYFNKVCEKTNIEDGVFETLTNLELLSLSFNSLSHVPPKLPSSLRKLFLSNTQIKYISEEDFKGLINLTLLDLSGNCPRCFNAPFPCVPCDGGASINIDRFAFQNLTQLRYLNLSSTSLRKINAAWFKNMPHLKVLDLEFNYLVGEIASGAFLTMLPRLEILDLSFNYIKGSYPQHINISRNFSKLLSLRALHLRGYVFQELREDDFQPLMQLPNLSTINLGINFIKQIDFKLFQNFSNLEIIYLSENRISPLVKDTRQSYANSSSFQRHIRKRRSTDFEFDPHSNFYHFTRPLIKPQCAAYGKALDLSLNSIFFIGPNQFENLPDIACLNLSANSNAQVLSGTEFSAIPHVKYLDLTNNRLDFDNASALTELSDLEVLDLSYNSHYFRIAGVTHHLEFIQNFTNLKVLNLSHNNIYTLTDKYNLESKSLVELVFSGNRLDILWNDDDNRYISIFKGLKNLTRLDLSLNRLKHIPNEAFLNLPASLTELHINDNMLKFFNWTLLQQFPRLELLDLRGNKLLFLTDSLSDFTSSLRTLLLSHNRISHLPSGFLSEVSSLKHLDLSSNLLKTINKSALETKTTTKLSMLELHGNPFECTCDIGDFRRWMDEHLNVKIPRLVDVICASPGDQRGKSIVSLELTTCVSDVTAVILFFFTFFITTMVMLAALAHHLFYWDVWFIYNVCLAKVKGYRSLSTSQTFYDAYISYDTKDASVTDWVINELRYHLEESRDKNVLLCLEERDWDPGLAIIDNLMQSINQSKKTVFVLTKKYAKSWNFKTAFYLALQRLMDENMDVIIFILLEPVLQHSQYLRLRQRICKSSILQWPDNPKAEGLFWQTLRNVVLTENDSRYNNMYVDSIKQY
Experiment: HEK293-Blue-hTLR-8 cells assay (SEAP reporter, R848 stimulation)
Type: cell-based
Conditions: HEK293-Blue-hTLR8 cells, R848, 20 hrs; read-out: HEK/hTLR8 IC50
Procedure: The following tests were carried out in order to determine the activity of the compounds of formula (I) and (Ia) in HEK293-Blue-hTLR-7/8/9 cells assay.
A stable HEK293-Blue-hTLR-8 cell line was purchased from InvivoGen (Cat. #: hkb-htlr8, San Diego, California, USA). These cells were originally designed for studying the stimulation of human TLR8 by monitoring the activation of NF-κB. A SEAP (secreted embryonic alkaline phosphatase) reporter gene was placed under the control of the IFN-β minimal promoter fused to five NF-κB and AP-1-binding sites. The SEAP was induced by activating NF-κB and AP-1 via stimulating HEK-Blue hTLR8 cells with TLR8 ligands. Therefore the reporter expression was declined by TLR8 antagonist under the stimulation of a ligand, such as R848, for incubation of 20 hrs. The cell culture supernatant SEAP reporter activity was determined using QUANTI-Blue™ kit (Cat. #: rep-qb1, Invivogen, San Diego, Ca, USA) at a wavelength of 640 nm, a detection medium that turns purple or blue in the presence of alkaline phosphatase.
HEK293-Blue-hTLR8 cells were incubated at a density of 250,000˜450,000 cells/mL in a volume of 170 μL in a 96-well plate in Dulbecco's Modified Eagle's medium (DMEM) containing 4.5 g/L glucose, […] penicillin, […], […] Normocin, 2 mM L-glutamine, 10% (v/v) heat-inactivated fetal bovine serum with addition of 20 μL test compound in a serial dilution in the presence of final DMSO at 1% and 10 μL of 60 uM R848 in above DMEM, perform incubation under 37° C. in a C02 incubator for 20 hrs. Then 20 μL of the supernatant from each well was incubated with 180 μL Quanti-blue substrate solution at 37° C. for 2 hrs and the absorbance was read at 620-655 nm using a spectrophotometer. The signaling pathway that TLR8 activation leads to downstream NF-κB activation has been widely accepted, and therefore similar reporter assay was modified for evaluating TLR8 antagonist.

SMILES | IC50 [nM]
CO[C@@H]1CN(c2ccc3c(c2)[C@@H](C)CN(c2ccnc4c2cnn4C)C3)C[C@H]1N [Example 20, (3R,4R)-4-methoxy-1-[(4R)-4-methyl-2-(1-methylpyrazolo[3,4-b]pyridin-4-yl)-3,4-dihydro-1H-isoquinolin-6-yl]pyrrolidin-3-amine] | 17
C[C@H]1CN(c2ccnc3c2cnn3C)Cc2ccc(N3CC4(CNCCO4)C3)cc21 [Example 21, 2-[(4R)-4-methyl-2-(1-methylpyrazolo[3,4-b]pyridin-4-yl)-3,4-dihydro-1H-isoquinolin-6-yl]-5-oxa-2,8-diazaspiro[3.5]nonane] | 14
CCn1ncc2c(N3Cc4ccc(N5CCNCC5)cc4[C@@H](C)C3)ccnc21 [Example 22, (4R)-2-(1-ethylpyrazolo[3,4-b]pyridin-4-yl)-4-methyl-6-piperazin-1-yl-3,4-dihydro-1H-isoquinoline] | 16
CO[C@@H]1CN(c2ccc3c(c2)[C@@H](C)CN(c2cc(C)nc4c2cnn4C)C3)C[C@H]1N [Example 23, (3R,4R)-4-methoxy-1-[(4R)-2-(1,6-dimethylpyrazolo[3,4-b]pyridin-4-yl)-4-methyl-3,4-dihydro-1H-isoquinolin-6-yl]pyrrolidin-3-amine] | 7
C[C@H]1CN(c2ccnc3c2cnn3C)Cc2ccc(N3C[C@H]4CNCCN4C3=O)cc21 [Example 24, (8aR)-2-[(4R)-4-methyl-2-(1-methylpyrazolo[3,4-b]pyridin-4-yl)-3,4-dihydro-1H-isoquinolin-6-yl]-1,5,6,7,8,8a-hexahydroimidazo[1,5-a]pyrazin-3-one] | 2
C[C@H]1CN(c2ccnc3c2cnn3C)Cc2ccc(N3C[C@@H]4CNCCN4C3=O)cc21 [Example 25, (8aS)-2-[(4R)-4-methyl-2-(1-methylpyrazolo[3,4-b]pyridin-4-yl)-3,4-dihydro-1H-isoquinolin-6-yl]-1,5,6,7,8,8a-hexahydroimidazo[1,5-a]pyrazin-3-one] | < 0.3
C[C@H]1CN(c2ccnc3c2cnn3C)Cc2ccc(N3CC4(CCNCC4)OC3=O)cc21 [Example 26, 3-[(4R)-4-methyl-2-(1-methylpyrazolo[3,4-b]pyridin-4-yl)-3,4-dihydro-1H-isoquinolin-6-yl]-1-oxa-3,8-diazaspiro[4.5]decan-2-one] | 10
C[C@H]1CN(c2ccnc3c2cnn3C)Cc2ccc(N3C4CCC3CNC4)cc21 [Example 27, (4R)-6-(3,8-diazabicyclo[3.2.1]octan-8-yl)-4-methyl-2-(1-methylpyrazolo[3,4-b]pyridin-4-yl)-3,4-dihydro-1H-isoquinoline] | 3
C[C@H]1CN(c2ccnc3c2cnn3C)Cc2ccc(N3CCC(N4CC(N)C4)CC3)cc21 [Example 28, 1-[1-[(4R)-4-methyl-2-(1-methylpyrazolo[3,4-b]pyridin-4-yl)-3,4-dihydro-1H-isoquinolin-6-yl]-4-piperidyl]azetidin-3-amine] | < 0.3
C[C@H]1CN(c2ccnc3c2cnn3C)Cc2ccc(N3CCC(N4CC[C@@H](N)[C@H](O)C4)CC3)cc21 [Example 29, trans-4-amino-1-[1-[(4R)-4-methyl-2-(1-methylpyrazolo[3,4-b]pyridin-4-yl)-3,4-dihydro-1H-isoquinolin-6-yl]-4-piperidyl]piperidin-3-ol] | 2
Cc1cc(N2Cc3ccc(OC[C@H]4CNCCN4)cc3[C@@H](C)C2)c2cnn(C)c2n1 [Example 30, (4R)-2-(1,6-dimethylpyrazolo[3,4-b]pyridin-4-yl)-4-methyl-6-[[(2R)-piperazin-2-yl]methoxy]-3,4-dihydro-1H-isoquinoline] | 2
Cc1cc(N2Cc3ccc(OC[C@@H]4CNCCN4)cc3[C@@H](C)C2)c2cnn(C)c2n1 [Example 31, (4R)-2-(1,6-dimethylpyrazolo[3,4-b]pyridin-4-yl)-4-methyl-6-[[(2S)-piperazin-2-yl]methoxy]-3,4-dihydro-1H-isoquinoline] | 2
C[C@H]1CN(c2ccnc3c2cnn3C)Cc2ccc(N3CCN(S(=O)(=O)C4CCNC4)CC3)cc21 (stereo partly drawn) [Example 33, (4R)-4-methyl-2-(1-methylpyrazolo[3,4-b]pyridin-4-yl)-6-(4-pyrrolidin-3-ylsulfonylpiperazin-1-yl)-3,4-dihydro-1H-isoquinoline] | 15
C[C@H]1CN(c2ccnc3c2cnn3C)Cc2ccc(N3CC4(CNC4)CC3=O)cc21 [Example 34, 6-[(4R)-4-methyl-2-(1-methylpyrazolo[3,4-b]pyridin-4-yl)-3,4-dihydro-1H-isoquinolin-6-yl]-2,6-diazaspiro[3.4]octan-7-one] | 26
C[C@H]1CN(c2ccnc3c2cnn3C)Cc2ccc(N3CC4(CCNC4)OC3=O)cc21 (stereo partly drawn) [Example 35, 3-[(4R)-4-methyl-2-(1-methylpyrazolo[3,4-b]pyridin-4-yl)-3,4-dihydro-1H-isoquinolin-6-yl]-1-oxa-3,7-diazaspiro[4.4]nonan-2-one] | 14
C[C@H]1CN(c2ccnc3c2cnn3C)Cc2ccc(N3CCN(Cc4cn(C)cn4)CC3)cc21 [Example 37, (4R)-4-methyl-6-[4-[(1-methylimidazol-4-yl)methyl]piperazin-1-yl]-2-(1-methylpyrazolo[3,4-b]pyridin-4-yl)-3,4-dihydro-1H-isoquinoline] | 5
C[C@H]1CN(c2ccnc3c2cnn3C)Cc2ccc(N3CCN(CCN(C)C)CC3)cc21 [Example 38, N,N-dimethyl-2-[4-[(4R)-4-methyl-2-(1-methylpyrazolo[3,4-b]pyridin-4-yl)-3,4-dihydro-1H-isoquinolin-6-yl]piperazin-1-yl]ethanamine] | < 0.3
C[C@H]1CN(c2ccnc3c2cnn3C)Cc2ccc(OCCN3CCNCC3)cc21 [Example 40, (4R)-4-methyl-2-(1-methylpyrazolo[3,4-b]pyridin-4-yl)-6-(2-piperazin-1-ylethoxy)-3,4-dihydro-1H-isoquinoline] | 7
C[C@H]1CN(c2ccnc3c2cnn3C)Cc2ccc(OC3CN(C4CCNCC4)C3)cc21 [Example 41, (4R)-4-methyl-2-(1-methylpyrazolo[3,4-b]pyridin-4-yl)-6-[1-(4-piperidyl)azetidin-3-yl]oxy-3,4-dihydro-1H-isoquinoline] | 8
C[C@H]1CN(c2ccnc3c2cnn3C)Cc2ccc(O[C@@H]3C[C@H]4CNCCN4C3)cc21 [Example 42, (4R)-4-methyl-2-(1-methylpyrazolo[3,4-b]pyridin-4-yl)-6-[[(7R,8aS)-1,2,3,4,6,7,8,8a-octahydropyrrolo[1,2-a]pyrazin-7-yl]oxy]-3,4-dihydro-1H-isoquinoline] | 2
C[C@H]1CN(c2ccnc3c2cnn3C)Cc2ccc(OC[C@H]3CNCCN3C)cc21 [Example 43, (4R)-4-methyl-2-(1-methylpyrazolo[3,4-b]pyridin-4-yl)-6-[[(2R)-1-methylpiperazin-2-yl]methoxy]-3,4-dihydro-1H-isoquinoline] | 2
C[C@H]1CN(c2ccnc3c2cnn3C)Cc2ccc(OC[C@@H]3CNCCN3C)cc21 [Example 44, (4R)-4-methyl-2-(1-methylpyrazolo[3,4-b]pyridin-4-yl)-6-[[(2S)-1-methylpiperazin-2-yl]methoxy]-3,4-dihydro-1H-isoquinoline] | 5
